For this test, the system named is hPBMC cells. The experiment in a line: Immunostimulation of hPBMC cells by RNA/peptide complexes, cytokine production (IL-6, TNF-alpha) by ELISA. Format: cell-based, human. As to conditions: hPBMCs, 24 h; nona-arginine or mRNA alone (not complexed). The method, then: 15 μg RNA stabilized luciferase mRNA according to SEQ ID NO: 36 (Luc-RNActive) were mixed in different mass ratios with nona-arginine (Arg9) or poly-L-arginine (Sigma-Aldrich; P4663; 5000-15000 g/mol), thereby forming a complex. Following mass ratios were used as shown exemplarily for ((Arg)9). Poly-L-arginine was used for comparative examples following the same instructions.
HPBMC cells from peripheral blood of healthy donors were isolated using a Ficoll gradient and washed subsequently with 1×PBS (phosphate-buffered saline). The cells were then seeded on 96-well microtiter plates (200×1 03/well). […] The immunostimulatory effect upon the hPBMC cells was measured by detecting the cytokine production (Interleukin-6 and Tumor necrose factor alpha). […] Then, the plate was again washed with 1×PBS, containing 0.05% TWEEN®-20 surfactant, and ABTS (2,2′-azino-bis(3-ethylbenzthiazoline-6-sulfonic acid) was added as a substrate. The amount of cytokine was determined by measuring the absorption at 405 nm (OD405) using a standard curve with recombinant Cytokines (BD Pharmingen, Heidelberg, Germany) with the Sunrise ELISA-Reader from Tecan (Crailsheim, Germany). […]
The effect of R9H3 on immunostimulation was tested in hPBMCs. […] The immunostimulatory effect upon the hPBMC cells was measured by detecting the cytokine production (Interleukin-6 and Tumor necrose factor alpha). […]
(ELISA stands for enzyme-linked immunosorbent assay.)

The text below walks through data of US10111967B2, “Complexes of RNA and cationic peptides for transfection and for immunostimulation” (CureVac AG, priority 2007, dated 2018).

Turning to “Arg-Arg-Arg-Arg-Arg-Arg-Arg-Arg-Arg (RRRRRRRRR; Synthetic peptide - Exemplary oligopeptide according to formula I) [nona-arginine ((Arg)9) alone]”, the TNFalpha production result is “no significant TNFalpha production”.
